“Also recorded” adds a separate entry of the source.
Key:
Assay type in all cases: cell-based, human
[1] = system: Ras effectors ERK and AKT in DLD-1 cells; experiment: Western blot of downstream RAS signaling (P-ERK, P-AKT, P-MEK) in serum-starved DLD-1 cells
Excerpt: (§1) DLD-1 (KRASWT/G13D) (clone V15, #HD PAR-086) colorectal adenocarcinoma cell line and DLD-1 knockout of mutant KRAS allele, DLD-1 KO (KRASWT/−) (clone DWT7, #HD105-002), were obtained from Horizon Discovery Ltd. (Cambridge, UK). hTERT-RPE (KRASWT/WT) immortalized retinal pigment epithelial human cell line was obtained from the […] (ATCC). DLD-1 KO cells stably expressing HA-KRAS G12V were previously generated in our laboratory (Cabot et al., 2021). All cells were grown in DMEM-HAM s F12 (1:1) supplemented with 10% foetal bovine serum (Biological Industries, Israel), penicillin, streptomycin, and nonessential amino acids. Cells were tested once per month for mycoplasma contamination.
Cells were seeded in a media containing 10% FBS for 24 hours and then they were serum starved (0.1% FBS) for the next 24 hours. Afterwards, they were incubated with the different compounds during the times specified in each figure. When indicated, also in order to activate downstream KRAS cell signalling, treatment for 10 minutes with EGF (50 ng/mL) (Sigma-Aldrich) was performed.
Proteins were resolved by SDS-PAGE, transferred onto PVDF membranes (Immobilon-P, Millipore) and Western blot was performed as previously described (Cabot et al, Oncogene 2021). The following primary antibodies were used: anti-c-RAF (BD Transduction 610151, 1:500); anti-phospho-c-RAF S338 (Cell Signaling 9427, 1:500); anti-AKT (Cell Signaling 9272, 1:1000); anti-phospho-AKT T308 (Cell Signaling 4056, 1:1000); anti-phospho-MEK1/2 S221 (Cell Signalling […]); anti-p44/42 MAPK (ERK1/2) (Cell Signaling 9102, 1:2000); anti-phospho-p44/42 MAPK(ERK1/2) T202/Y204 (Cell Signaling 4370, 1:2000); anti-HA (Sigma-Aldrich H6908, 1:1000); anti-cleaved-caspase-3 (Asp175) (Cell Signaling 9661, 1:1000); HRP-coupled secondary antibodies used: goat anti-rabbit (BioRad 170-6515, 1:3000) or goat anti-mouse (BioRad 170 6516, 1:3000).
For analysis of RAS signalling, cells were lysed in a buffer containing 67 mM Tris-HCl pH 6.8 and 2% SDS and then the samples were heated at 97° C. for 15 minutes. Protein concentration of the lysates was assessed using the Lowry method. An aliquot of […] of protein per sample was loaded onto the gels.
We first analyzed the effect of P14 on the activation of downstream RAS signaling pathways (RAF/MEK/ERK and PI3K/AKT) in DLD-1 cells (CRC cells carrying one oncogenic KRAS allele). To this end, DLD-1 serum-starved cells (0.1% FCS) were treated with P14 (100 μM) at different times, and activation of AKT and ERK was evaluated by Western blot. […] As a 3-hour treatment was associated with major effects, we chose this duration for the subsequent experiments with the other compounds. Next, DLD-1 serum-starved cells were treated with P14A-P14C at 100 μM for 3 hours and activation of AKT and ERK was assessed as above. […] The kinetics of RAS downstream signaling was analyzed in P14B-treated cells compared to 10% FBS serum.

[2] = system: DLD-1 cells; experiment: Cleaved caspase-3 Western blot, DLD-1; settings: DLD-1 cells treated 34 h or 48 h
Experimental: (§2) FIG. 6C is a blot showing extracts of DLD-1, DLD-1-KO and RPE cells at 34 h. and 48 h. DLD-1 cells treated with P14B for 36 h and 48 h were lysed and the expression of the apoptosis marker cleaved caspase-3 was analyzed by Western blot. Cells treated with the apoptosis inducer palmitic acid (PA) were used as a positive control.
(§3) Proteins were resolved by SDS-PAGE, transferred onto PVDF membranes (Immobilon-P, Millipore) and Western blot was performed as previously described (Cabot et al, Oncogene 2021). […]
(§4) Since both inhibition and sustained activation of RAS signaling are related to a decrease in cell survival, we analyzed the viability of the CRC cell lines DLD-1 (expressing oncogenic KRAS) and DLD-1-KO (oncogenic KRAS allele deleted), and the non-transformed cell line hTERT-RPE. […] The effect of P14B in DLD-1 cells cultured in 3D conditions was also determined. […]

[3] = system: DLD-1-KO cells; experiment: MTS cell viability assay, DLD-1-KO; settings: at approximately 80 μM
Excerpt: as §1
10,000 cells in 50 µL of 10% FBS-containing medium, were cultured for 24 hours and then treated with the compounds (50 μL final volume) for 48 h hours in each well of a 96-well plate (100 μL final volume). MTS viability assay (CellTiter 96® Aqueous One Solution Cell Proliferation Assay, Promega G3580) was assessed following the company conditions. The absorbance of each well was measured with a multimode plate reader (Spark, Tecan) at 490 nm. The percentage of cell viability was calculated by dividing the absorbance of each well by the average absorbance of the control wells. […]

[4] = system: DLD-1 cells; experiment: MTS cell viability assay, DLD-1
Excerpt: as §1
MTS viability assay (CellTiter 96® Aqueous One Solution Cell Proliferation Assay, Promega G3580) was assessed following the company conditions. The absorbance of each well was measured with a multimode plate reader (Spark, Tecan) at 490 nm. The percentage of cell viability was calculated by dividing the absorbance of each well by the average absorbance of the control wells.
Since both inhibition and sustained activation of RAS signaling are related to a decrease in cell survival, we analyzed the viability of the CRC cell lines DLD-1 (expressing oncogenic KRAS) and DLD-1-KO (oncogenic KRAS allele deleted), and the non-transformed cell line hTERT-RPE. […] At the IC50 of approximately 80 μM for DLD-1 cells, the viability of DLD-1-KO and of non-transformed cells was not affected (FIG. 6A). […] The effect of P14B in DLD-1 cells cultured in 3D conditions was also determined. […] Consequently, we conclude that P14B selectively reduces the viability of CRC cells expressing oncogenic KRAS, causing minor effects if these cells have been knocked out for oncogenic KRAS or in non-transformed cells. Thereby, P14B might be considered as an inducer of apoptosis in CRC with oncogenic KRAS.
[…] Each point corresponds to n=6. The concentration (μM) indicated in the graph is the one in the final 100 μL volume). **** p<0.0001 (t-student test).

[5] = system: DLD-1-KO cells; experiment: Cleaved caspase-3 Western blot, DLD-1-KO; settings: DLD-1-KO cells treated 34 h or 48 h
Experimental: as §2, §3, §4

[6] = DLD-1 serum-starved cells, 100 μM, 3 hours
[7] = DLD-1 starved cells, time course 15 min to 6 hours

COc1ccc(C(c2c(C)n[nH]c2O)c2c(C)n[nH]c2O)cc1Oc1ccc([N+](=O)[O-])cc1 [Example P14B]
AKT and ERK phosphorylation ([1]; DLD-1 serum-starved cells (0.1% FCS), 100 μM): dramatically increased; also recorded: increases endogenous downstream RAS signaling
activation of AKT and ERK [1, 6]: activated AKT and ERK kinases; also recorded: increase AKT and/or ERK signalling
relative capacity to activate Ras effectors ERK and AKT among the compounds [1, 6]: most efficient; also recorded: greatest capacity to activate Ras signaling; also recorded: highest activation of both Ras effectors
duration of ERK phosphorylation compared with 10% FBS [1, 7]: maintained for a longer time; also recorded: more sustained
onset of ERK and MEK activation compared with 10% FBS [1, 7]: clearly delayed
cleaved caspase-3 expression [2]: only detected in DLD-1-treated cells
cell viability [3]: not affected
maxim cell viability reduction compared with Erlotinib ([4]; DLD-1, 5000 cells, 48 h treatment): significantly higher
IC50 ([4]; DLD-1 cells, dose-response 0 to 100 μM, 24 hours): ~80 µM
cell viability ([4]; DLD-1 cells, specifically at 75 μM and 100 μM): significantly reduced the cell viability; also recorded: decreases the viability
cleaved caspase-3 expression [5]: undetectable

Reference: patent US20260217656A1, “Compounds Affecting KRAS” (UNIVERSITAT DE BARCELONA, priority 2022, published 2026)
